Laboratory results reported in ChEMBL document CHEMBL5252653, “Design, Synthesis, and Bioevaluation of Dexmedetomidine Prodrug” (ACS Med Chem Lett, 2023).

Key:
[1] = test system: Rattus norvegicus; test: Sedative activity in Sprague-Dawley rat at 10 to 110 microg/ml, iv administered as bolus dose by dixon analysis; assay type: functional
[2] = Toxicity in Sprague-Dawley rat assessed as survival rate at 2 times of EC50; conditions: in vivo, read-out: Activity
[3] = species on record: Rattus norvegicus; test: Sedative activity in Sprague-Dawley rat assessed as onset time at 2 times of EC50; assay type: functional; conditions: dose 10-110 µg/ml; route iv
[4] = test system: Rattus norvegicus; test: Sedative activity in Sprague-Dawley rat assessed as duration time at 2 times of EC50 administered as bolus dose; assay type: functional
[5] = Prodrug conversion in Sprague-Dawley rat assessed as dexmedetomidine release at 2 times of ED50; assay type: ADME; conditions: in vivo
[6] = Prodrug conversion in Sprague-Dawley rat plasma assessed as dexmedetomidine release measured at 15 mins by HPLC analysis; assay type: ADME, cell-free; conditions: 0.25 h
[7] = Cardiotoxicity in Sprague-Dawley rat assessed as decrease in blood pressure at 20 to 80 microg/ml, iv administered as bolus dose by ECG analysis; assay type: toxicity, organism-based; parameters: scale not given: the % may be the effect or the level left; conditions: in vivo, at 20 to 80 µg/mL, dose 20-80 µg/ml
[8] = Cardiotoxicity in Sprague-Dawley rat assessed as decrease in blood pressure at 20 to 80 microg/ml, iv administered as bolus dose measured for 45 mins by ECG analysis; assay type: toxicity, organism-based; parameters: scale not given: the % may be the effect or the level left; conditions: in vivo, 0.75 h, at 20 to 80 µg/mL, dose 20-80 µg/ml
[9] = Cardiotoxicity in Sprague-Dawley rat assessed as reduction in heart rate at 20 to 80 microg/ml, iv administered as bolus dose by ECG analysis; assay type: toxicity, organism-based; conditions: in vivo, dose 20-80 µg/ml
[10] = Prodrug conversion in Sprague-Dawley rat plasma assessed as dexmedetomidine release measured at 5 mins by HPLC analysis; assay type: ADME, cell-free
[11] = Prodrug conversion in Sprague-Dawley rat plasma assessed as dexmedetomidine release measured at 1 hr by HPLC analysis; assay type: ADME, cell-free
[12] = Cardiotoxicity in Sprague-Dawley rat assessed as change in heart rate at 20 to 80 microg/ml, iv administered as bolus dose by ECG analysis; assay type: toxicity, organism-based; conditions: in vivo, at 20 to 80 µg/mL, dose 20-80 µg/ml
[13] = Prodrug conversion in Sprague-Dawley rat plasma assessed as dexmedetomidine release measured at 30 mins by HPLC analysis; assay type: ADME, cell-free; conditions: 0.5 h
[14] = Prodrug conversion in Sprague-Dawley rat plasma assessed as dexmedetomidine release measured at 2 mins by HPLC analysis; assay type: ADME, cell-free
[15] = Cardiotoxicity in Sprague-Dawley rat assessed as bradycardia at 20 to 80 microg/ml, iv administered as bolus dose by ECG analysis; assay type: toxicity, organism-based; conditions: in vivo, at 20 to 80 µg/mL, dose 20-80 µg/ml

Row | SMILES | ED50 [1] [mg/kg] | survival [2] [%] | Time [3] [s] | Time [4] [s] | Drug metabolism [5] [µg/kg] | Drug metabolism [6] | Activity [7] [%] | Activity [8] [%] | Activity [9] | Drug metabolism [10] | Drug metabolism [11] | Activity [12] [%] | Drug metabolism [13] | Drug metabolism [14] | Activity [15] [%]
1 | Cc1cccc([C@H](C)c2cn(COC(=O)OC(C)C)cn2)c1C.Cl | 0.0311 | 100 | 305.2 | 2458.7 | 35.33 |  |  |  |  |  |  |  |  |  | 
2 | COC(=O)n1cnc([C@@H](C)c2cccc(C)c2C)c1.Cl | 0.02 | 100 | 219.5 | 2018.2 | 25.77 | Metabolite_Detected | 17.35 |  |  |  |  |  |  |  | 
3 | CC(=O)OCn1cnc([C@@H](C)c2cccc(C)c2C)c1.Cl | 0.0321 | 100 | 252.4 | 2483.6 | 41.68 |  |  | 29.66 |  |  |  |  |  |  | 
4 | CCOC(=O)COC(=O)OCn1cnc([C@@H](C)c2cccc(C)c2C)c1.Cl | 0.0468 | 100 | 68.2 | 3177.7 | 47.22 |  |  | 28.49 | Toxic |  |  |  |  |  | 
5 | Cc1cccc([C@H](C)c2cn(COC(=O)C(C)C)cn2)c1C.Cl | 0.0399 | 100 | 63.9 | 3798.6 | 47.44 |  |  |  |  | Metabolite_Detected |  |  |  |  | 
6 | CCOC(=O)CCC(=O)OCn1cnc([C@@H](C)c2cccc(C)c2C)c1.Cl | 0.0273 | 100 | 116 | 2484.1 | 27.67 |  |  |  | Toxic |  | Metabolite_Detected |  |  |  | 
7 | Cc1cccc([C@H](C)c2cn(COC(=O)C3CC3)cn2)c1C.Cl | 0.0298 | 100 | 195.2 | 2410 | 35.67 |  |  |  |  |  |  |  |  |  | 
8 | Cc1cccc([C@H](C)c2cn(COC(=O)C(C)(C)C)cn2)c1C.Cl | 0.0551 | 100 | 157.9 | 3091.8 | 62.94 |  | 14.57 |  | Toxic |  |  | -27.08 |  |  | 
9 | COC(=O)COC(=O)OCn1cnc([C@@H](C)c2cccc(C)c2C)c1.Cl | 0.0487 | 100 | 94.9 | 3795.2 | 50.93 |  |  | 31.3 | Toxic |  |  |  |  |  | 
10 | CCCC(=O)OCn1cnc([C@@H](C)c2cccc(C)c2C)c1.Cl | 0.0211 | 100 | 265 | 1941.9 | 25.15 |  | 20.07 |  | Toxic | Metabolite_Detected |  | -29.92 |  |  | 
11 | CCCOC(=O)n1cnc([C@@H](C)c2cccc(C)c2C)c1 | 0.0255 | 100 | 142.1 | 2605.7 | 31.7 |  | 28.23 |  |  |  |  |  |  |  | 
12 | CCC(=O)OC(C)n1cnc([C@@H](C)c2cccc(C)c2C)c1.Cl (stereo not given in full) | 0.035 | 100 | 159.8 | 2295.6 | 41.58 |  |  | 32.17 | Toxic |  |  |  | Metabolite_Detected |  | 
13 | CCOC(=O)n1cnc([C@@H](C)c2cccc(C)c2C)c1.Cl | 0.0213 | 100 | 289.1 | 1971.4 | 27.61 |  |  |  |  |  |  |  |  |  | 
14 | Cc1cccc([C@H](C)c2cn(COC(=O)OC3CCC3)cn2)c1C.Cl | 0.0268 | 100 | 185 | 3189.5 | 29.48 |  | 34.79 |  | Toxic | Metabolite_Detected |  |  |  | Metabolite_Detected | 
15 | CCC(=O)OCn1cnc([C@@H](C)c2cccc(C)c2C)c1.Cl | 0.0268 | 100 | 184.4 | 2325.8 | 33.32 |  | 34.92 |  |  | Metabolite_Detected |  |  |  |  | 
16 | Cc1cccc([C@H](C)c2cn(C(=O)OC(C)C)cn2)c1C.Cl | 0.0446 | 100 | 239.3 | 3984.1 | 55.39 | Metabolite_Detected | 22.4 |  | Toxic |  |  | -22.88 |  |  | -22.88
17 | Cc1cccc([C@H](C)c2cn(COC(=O)C3CCC3)cn2)c1C.Cl | 0.034 | 100 | 214.4 | 2841.2 | 39.02 |  |  |  |  |  |  |  |  |  | 
18 | Cc1cccc([C@H](C)c2cn(COC(=O)c3ccccc3)cn2)c1C.Cl | 0.0595 | 100 | 204.1 | 4457.7 | 64.29 |  |  |  | Toxic |  |  |  | Metabolite_Detected |  | 
19 | COC(=O)CCC(=O)OCn1cnc([C@@H](C)c2cccc(C)c2C)c1.Cl | 0.0301 | 100 | 78.9 | 2733.9 | 31.71 |  |  |  | Toxic |  | Metabolite_Detected |  |  |  | 
20 | Cc1cccc([C@H](C)c2cn(C(=O)OCC(C)C)cn2)c1C.Cl | 0.0359 | 100 | 151.9 | 2802.9 | 42.7 |  | 34.65 |  | Toxic |  |  |  |  |  | 
21 | CC(=O)OC(C)n1cnc([C@@H](C)c2cccc(C)c2C)c1.Cl (stereo not given in full) | 0.0263 | 100 | 117 | 2274.1 | 32.61 |  | 14.67 |  |  |  |  |  | Metabolite_Detected |  | 
22 | Cc1cccc([C@H](C)c2cn(COC(=O)OC3CC3)cn2)c1C.Cl | 0.0232 | 100 | 92.1 | 2795.7 | 26.53 |  | 37.25 |  |  | Metabolite_Detected |  |  |  | Metabolite_Detected | 
23 | COC(=O)OCn1cnc([C@@H](C)c2cccc(C)c2C)c1.Cl | 0.0232 | 100 | 259.6 | 2017.2 | 28.68 |  | 16.35 |  |  |  |  |  |  |  | 
24 | Cc1cccc([C@H](C)c2cnc[nH]2)c1C [DEXMEDETOMIDINE] | 0.0168 | 100 | 87.8 | 3312 | 28.38 |  | 43.55 |  |  |  |  | -33.58 |  |  | -41.07
25 | Cc1cccc([C@H](C)c2cncn2COP(=O)([O-])[O-])c1C.[Na+].[Na+] | 0.0402 | 100 | 206.5 | 3966.6 | 45.5 |  | 15.15 |  |  |  |  |  |  |  | 
26 | CCOC(=O)OCn1cnc([C@@H](C)c2cccc(C)c2C)c1.Cl | 0.0292 | 100 | 122.5 | 2887.7 | 34.47 |  |  |  | Toxic |  |  |  |  |  | -24.88
